According to patent US10449137B2, “Antimicrobial composition” (Conopco, Inc., priority 2015, dated 2019):

System: E. coli ATCC 10536
Experiment: In-vitro micro-dilution assay for determination of antimicrobial activity
Type: cell-based
Settings: for Average Residual Log (CFU/mL): E. coli ATCC 10536, 10^6 cells/mL in 10 mM sodium phosphate buffer, contact time 4 hours, about 37° C., plated on MacConkey agar; for antimicrobial action (in words): low concentration, E. coli ATCC 10536, 4 hours contact
Procedure: In-vitro Micro-dilution Assay for Determination of Antimicrobial Activity of Different Compositions:
The organism used for the assay was E. coli ATCC 10536
The procedure that was followed is given below: • a) First, the bacterial suspension corresponding to 10^6 cells/mL was prepared in 10 mM Sodium phosphate buffer. For this purpose the sodium phosphate buffer was prepared as follows: • To prepare the sodium phosphate buffer two different solutions were made. The first solution was prepared by dissolving 27.6 g of NaH2PO4.H20 (MW=138) in 500 mL of MilliQ water and made up the volume to 1 L with MilliQ water. This was then autoclaved and stored at room temperature. The molarity of the resultant solution was 0.2. • Then, the second solution was prepared by dissolving 53.62 g of […] (MW=268.1) in 500 mL of MilliQ water and made up the volume to 1 L with MilliQ water. This was then autoclaved and stored at room temperature. The molarity of the resultant solution was 0.2. • 19 mL of the first solution and 81 mL of the second solution was added together followed by the addition of 100 mL of MilliQ water to obtain a 200 mL solution of sodium phosphate buffer of molarity 0.1 with pH 7.4. • The required level of molarity that was need for the experiments were obtained by diluting the above solution. • b) Then 135 μL/well of the above bacterial suspension was taken and plated in a 96 well microtiter plate. • c) After that 15 μL of 100 mM sodium phosphate buffer was added in all well for all the samples. • d) Then the required test compositions were added in the well for the test. • e) The reaction volume for all the test samples was 300 μL. This reaction volume was adjusted by adding water. • f) The following samples were tested: • Example A: Only Culture • Example B: 1% niacinamide • Example C: 0.01% thymol • Example D: 0.01% terpineol • Example E: 0.01% thymol+0.01% terpineol • Example F: 0.01% Farnesol • Example G: 0.02% Farnesol • Example H: 1% niacinamide+0.01% Farnesol • Example I: 1% niacinamide+0.02% Farnesol • Example 1: 1% niacinamide+0.01% thymol+0.01% terpineol • Example 2: 1% niacinamide+1 μg/mL of LL-37+0.01% thymol+0.01% terpineol • For the above purpose, Thymol was procured from Nishant Aromas, India (Purity: 99%), Terpineol was also procured from Nishant Aromas, India (Purity: 99%), LL-37 (AMP) was procured from Sigma (Cat no: 94261),Niacinamide was procured from Veer Chemicals (Purity: 99%) and Farnesol was procured from Sigma-Aldrich (Cat. No: F203). • g) The contact time for the above test (for all the samples) was 4 hours and the temperature was maintained at about 37° C. • h) After the above contact time, the culture was serially diluted and plated on MacConkey Agar Medium (from Difco) and left it for 24 hours. After that, the residual colonies were counted to determine the bacterial kill/Residual Log.

terpineol [Example D]
Average Residual Log (CFU/mL): 6.45 Log (CFU/mL) | antimicrobial action (in words): not effective

Cc1ccc(C(C)C)c(O)c1 [Example C, thymol]
Average Residual Log (CFU/mL): 6.35 Log (CFU/mL) | antimicrobial action (in words): not effective

CC(C)=CCCC(C)=CCCC(C)=CCO [Example F, Farnesol]
Average Residual Log (CFU/mL): 6.40 Log (CFU/mL)

NC(=O)c1cccnc1 [Example B, niacinamide]
Average Residual Log (CFU/mL): 6.42 Log (CFU/mL)

CC(C)=CCCC(C)=CCCC(C)=CCO [Example G, Farnesol]
Average Residual Log (CFU/mL): 6.35 Log (CFU/mL)
